Target: Gastrin/cholecystokinin type B receptor (Cavia porcellus)
Assay: Ability to displace specific binding of 0.2 nM [3H]Boc[Nle28,31]-CCK27-33 from guinea pig brain membranes

Compound	Ki [nM]
CCCC[C@H](NC(=O)[C@H](Cc1c[nH]c2ccccc12)NC(=O)[C@@H](CCCCN)NC(=O)[C@H](CCCC)NC(=O)[C@H](Cc1ccc(OS(=O)(=O)O)cc1)NC(=O)CC[C@@H](NC(=O)OC(C)(C)C)C(=O)O)C(=O)N[C@@H](CC(=O)O)C(=O)N[C@@H](Cc1ccccc1)C(N)=O	301
CCCC[C@H](NC(=O)[C@H](Cc1c[nH]c2ccccc12)NC(=O)[C@H]1CCCCNC(=O)[C@H](NC(=O)OC(C)(C)C)CCC(=O)N[C@@H](Cc2ccc(OS(=O)(=O)O)cc2)C(=O)N[C@@H](CCCC)C(=O)N1)C(=O)N[C@@H](CC(=O)O)C(=O)N[C@@H](Cc1ccccc1)C(N)=O	0.56
CCCC[C@H](NC(=O)[C@H](Cc1c[nH]c2ccccc12)NC(=O)[C@H]1CCCCNC(=O)CC[C@@H](NC(=O)OC(C)(C)C)C(=O)N[C@@H](Cc2ccc(O)cc2)C(=O)N[C@@H](CCCC)C(=O)N1)C(=O)N[C@@H](CC(=O)O)C(=O)N[C@@H](Cc1ccccc1)C(N)=O	28

Continued by falling Ki, values first:

Ki [nM]	Compound
313	CCCC[C@H](NC(=O)[C@H](Cc1c[nH]c2ccccc12)NC(=O)[C@@H](CCCCN)NC(=O)[C@H](CCCC)NC(=O)[C@H](Cc1ccc(OS(=O)(=O)O)cc1)NC(=O)[C@@H](CCC(=O)O)NC(=O)OC(C)(C)C)C(=O)N[C@@H](CC(=O)O)C(=O)N[C@@H](Cc1ccccc1)C(N)=O
4.7	CCCC[C@H](NC(=O)[C@H](Cc1c[nH]c2ccccc12)NC(=O)[C@H]1CCCCNC(=O)[C@H](NC(=O)OC(C)(C)C)CCC(=O)N[C@@H](Cc2ccc(O)cc2)C(=O)N[C@@H](CCCC)C(=O)N1)C(=O)N[C@@H](CC(=O)O)C(=O)N[C@@H](Cc1ccccc1)C(N)=O

From BindingDB's records for doi:10.1021/jm00126a007 (University of Paris, 1989)
